Laboratory results taken from patent US4933350A, “Pyrroloisoquinolines useful as hypercholesterolemic and hyperlipoprotienimic agents” (May & Baker Limited, priority 1987, dated 1990).

Experiments:
[1] = target: T1, rat hepatic microsomal HMG CoA reductase (Rattus norvegicus, UniProt P51639); test: inhibition in rat hepatic microsomal HMG CoA reductase activity in vitro (Table I); format: biochemical; conditions: for inhibition at 0.0091 µg/mL: 0.0091 micrograms/ml; for inhibition at 0.0274 µg/mL: 0.0274 micrograms/ml; for inhibition at 0.082 µg/mL: 0.082 micrograms/ml; for inhibition at 0.24 µg/mL: 0.24 micrograms/ml; for inhibition at 0.74 µg/mL: 0.74 micrograms/ml; for inhibition at 2.22 µg/mL: 2.22 micrograms/ml; for inhibition at 0.25 µg/mL: 0.25 micrograms/ml; for inhibition at 0.2 µg/mL: 0.2 micrograms/ml; for inhibition at 20 µg/mL: 20.0 micrograms/ml; for inhibition at 6.7 µg/mL: 6.7 micrograms/ml; for inhibition at 6.66 µg/mL: 6.66 micrograms/ml
T1 construct: rat hepatic microsomal HMG CoA reductase activity in vitro; from tissue; host or cells: rat liver microsomes
T1 sequence (P51639 1-887): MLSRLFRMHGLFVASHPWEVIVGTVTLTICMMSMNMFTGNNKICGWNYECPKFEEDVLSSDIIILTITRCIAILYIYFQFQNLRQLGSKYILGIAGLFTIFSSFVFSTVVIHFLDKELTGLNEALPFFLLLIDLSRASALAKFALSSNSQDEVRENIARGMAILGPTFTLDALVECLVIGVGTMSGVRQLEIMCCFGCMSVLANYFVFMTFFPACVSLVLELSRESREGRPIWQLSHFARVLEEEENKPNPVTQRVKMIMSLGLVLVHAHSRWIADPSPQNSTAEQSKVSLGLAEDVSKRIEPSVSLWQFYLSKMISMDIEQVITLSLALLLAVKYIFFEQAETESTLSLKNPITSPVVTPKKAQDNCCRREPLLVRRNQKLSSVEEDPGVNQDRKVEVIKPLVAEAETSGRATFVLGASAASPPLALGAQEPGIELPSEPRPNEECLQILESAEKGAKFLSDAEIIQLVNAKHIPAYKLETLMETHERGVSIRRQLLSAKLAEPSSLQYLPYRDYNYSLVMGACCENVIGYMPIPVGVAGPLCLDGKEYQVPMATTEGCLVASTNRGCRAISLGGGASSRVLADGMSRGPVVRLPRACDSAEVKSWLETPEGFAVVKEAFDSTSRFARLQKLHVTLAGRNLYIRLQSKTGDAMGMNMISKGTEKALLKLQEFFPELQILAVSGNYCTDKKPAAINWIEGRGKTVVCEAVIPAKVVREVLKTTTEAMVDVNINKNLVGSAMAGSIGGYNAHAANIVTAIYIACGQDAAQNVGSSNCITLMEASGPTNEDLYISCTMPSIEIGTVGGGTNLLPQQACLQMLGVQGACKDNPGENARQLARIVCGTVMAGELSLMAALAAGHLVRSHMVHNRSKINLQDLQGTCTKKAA

cholesterol biosynthesis = test: inhibition in cholesterol biosynthesis, in vivo tests in rats, oral (Table II)
Description: In the table the doses are expressed in mg/kg animal body weight.

inhibition at 0.0274 µg/mL [1] | Compound | inhibition at 0.082 µg/mL [1] | inhibition at 0.24 µg/mL [1] | inhibition at 0.74 µg/mL [1] | inhibition at 2.22 µg/mL [1] | inhibition at 20 µg/mL [1] | inhibition at 6.66 µg/mL [1] | further results
51% | CC(C)c1c(/C=C/[C@@H](O)C[C@@H](O)CC(=O)O)c(-c2ccc(F)cc2)c2c3ccccc3ccn12 (relative stereo) [OA, sodium erythro-(E)-3,5-dihydroxy-7-{3-isopropyl-1-(4-fluorophenyl)pyrrolo[2,1-a]isoquinolin-2-yl}-hept-6-enoate] | 63% | 74% | 87% | 95% |  |  | inhibition at 0.00304 µg/mL ([1]; 0.00304 micrograms/ml): 37%; inhibition at 0.0091 µg/mL [1]: 43%
21% | CC(C)c1c(/C=C/[C@@H](O)C[C@H](O)CC(=O)O)c(-c2ccc(F)cc2)c2c3ccccc3ccn12 (relative stereo) [OB, sodium threo-(E)-3,5-dihydroxy-7-{3-isopropyl-1-(4-fluorophenyl)pyrrolo[2,1-a]isoquinolin-2-yl}-hept-6-enoate] | 29% |  | 53% | 70% |  |  | inhibition at 0.25 µg/mL [1]: 38%
 | CC(C)c1c(/C=C/C(O)CC(O)CC(=O)[O-])c(-c2ccccc2)c2c3ccccc3ccn12.[Na+] (centres unmarked) [Compound B, sodium (E)-3,5-dihydroxy-7-(3-isopropyl-1-phenylpyrrolo[2,1-a]isoquinolin-2-yl)hept-6-enoate] |  |  |  |  | 98% |  | % Inhibition in cholesterol biosynthesis (cholesterol biosynthesis; oral dose 1.11 mg/kg): 67%; % Inhibition in cholesterol biosynthesis (cholesterol biosynthesis; oral dose 3.33 mg/kg): 77%; % Inhibition in cholesterol biosynthesis (cholesterol biosynthesis; oral dose 10.0 mg/kg): 91%; inhibition at 0.025 µg/mL ([1]; 0.025 micrograms/ml): 16%; inhibition at 0.1 µg/mL ([1]; 0.1 micrograms/ml): 28%; inhibition at 0.2 µg/mL [1]: 43%; inhibition at 0.4 µg/mL ([1]; 0.4 micrograms/ml): 44%; inhibition at 1.6 µg/mL ([1]; 1.6 micrograms/ml): 72%; inhibition at 2 µg/mL ([1]; 2.0 micrograms/ml): 81%; inhibition at 6.4 µg/mL ([1]; 6.4 micrograms/ml): 91%
 | CC(C)c1c(/C=C/C(=O)CC(O)CC(=O)O)c(-c2ccccc2)c2c3ccccc3ccn12 (centres unmarked) [Compound E, (E)-3-hydroxy-7-(3-isopropyl-1-phenylpyrrolo[2,1-a]isoquinolin-2-yl)-5-oxohept-6-enoic acid] |  |  |  |  | 90% |  | inhibition at 2.2 µg/mL ([1]; 2.2 micrograms/ml): 50%; inhibition at 6.7 µg/mL [1]: 71%
 | CC(C)c1c(CCC2CC(O)CC(=O)O2)c(-c2ccccc2)c2c3ccccc3ccn12 (centres unmarked) [Compound G, 4-hydroxy-6-[2-(3-isopropyl-1-phenylpyrrolo[2,1-a]isoquinolin-2-yl)ethyl]-3,4,5,6-tetrahydro-2H-pyran-2-one] |  |  |  |  | 44% |  | inhibition at 6.7 µg/mL [1]: 38%
 | CCOC(=O)CC(O)CC(O)/C=C/c1c(-c2ccccc2)c2c3ccccc3ccn2c1C (centres unmarked) [Compound H, ethyl (E)-3,5-dihydroxy-7-(3-methyl-1-phenylpyrrolo[2,1-a]-isoquinolin-2-yl)hept-6-enoate] |  | 26% | 22% | 33% | 70% | 54% | 
 | Cc1c(/C=C/C(O)CC(O)CC(=O)O)c(-c2ccccc2)c2c3ccccc3ccn12 (centres unmarked) [Compound I, sodium (E)-3,5-dihydroxy-7-(3-methyl-1-phenylpyrrolo[2,1-a]isoquinolin-2-yl)hept-6-enoate] | 44% |  | 35% | 46% | 85% | 68% | inhibition at 0.25 µg/mL [1]: 39%
 | CC(C)c1c(/C=C/C(O)CC(O)CC(=O)O)c(-c2ccc(F)cc2)n2ccc3ccccc3c12 (centres unmarked) [Compound M, sodium (E)-3,5-dihydroxy-7-{1-isopropyl-3-(4-fluorophenyl)pyrrolo[2,1-a]isoquinolin-2-yl}hept-6-enoate] |  |  | 78% | 90% | 98% | 96% | inhibition at 0.0025 µg/mL ([1]; 0.0025 micrograms/ml): 33%; inhibition at 0.0074 µg/mL ([1]; 0.0074 micrograms/ml): 46%; inhibition at 0.022 µg/mL ([1]; 0.022 micrograms/ml): 63%; inhibition at 0.066 µg/mL ([1]; 0.066 micrograms/ml): 69%; inhibition at 0.2 µg/mL [1]: 74%; inhibition at 0.22 µg/mL ([1]; 0.22 micrograms/ml): 65%
 | CC(C)c1c(/C=C/C(=O)CC(O)CC(=O)O)c(-c2ccc(F)cc2)c2c3ccccc3ccn12 (centres unmarked) [Compound Q, sodium (E)-3-hydroxy-7-{3-isopropyl-1-(4-fluorophenyl)pyrrolo-[2,1-a]isoquinolin-2-yl}-5-oxohept-6-enoate] | 8% | 22% | 45% | 70% |  | 89% | 
55% | CCOC(=O)CC(O)CC(O)/C=C/c1c(-c2ccc(F)cc2)c2c3ccccc3ccn2c1C(C)C (centres unmarked) [N, ethyl (E)-3,5-dihydroxy-7-{3-isopropyl-1-(4-fluorophenyl)pyrrolo[2,1-a]isoquinolin-2-yl}hept-6-enoate] | 61% |  | 87% | 95% |  |  | inhibition at 0.0091 µg/mL [1]: 44%; inhibition at 0.25 µg/mL [1]: 74%
 | CC(C)c1c(/C=C/C(O)CC(O)CC(=O)O)c(-c2ccc(F)cc2)c2c3ccccc3ccn12 (centres unmarked) [O, sodium (E)-3,5-dihydroxy-7-{3-isopropyl-1-(4-fluorophenyl)pyrrolo[2,1-a]isoquinolin-2-yl}-hept-6-enoate] |  | 69% | 81% | 92% | 99% | 97% | 

Compound | inhibition at 0.0274 µg/mL [1] | inhibition at 0.082 µg/mL [1] | inhibition at 0.24 µg/mL [1] | inhibition at 0.74 µg/mL [1] | inhibition at 2.22 µg/mL [1] | inhibition at 20 µg/mL [1] | inhibition at 6.66 µg/mL [1] | further results
CCc1c(/C=C/C(O)CC(O)CC(=O)O)c(-c2ccc(F)cc2)c2c3ccccc3ccn12 (centres unmarked) [Compound K, sodium (E)-3,5-dihydroxy-7-{3-ethyl-1-(4-fluorophenyl)pyrrolo-[2,1-a]isoquinolin-2-yl}hept-6-enoate] | 27% | 33% | 46% | 68% | 86% |  | 95% | 
